Reference: article PMC3431135, “Pharmacological Evaluation and Docking Studies of 3-Thiadiazolyl- and Thioxo-1,2,4-triazolylcoumarin Derivatives as Cholinesterase Inhibitors” (ISRN Pharmacology, 2012)
Where two headings read alike, the source gives them in different places.

What was measured:
[1] = target: T1, BChE from horse serum (hBChE) (Equus caballus, UniProt P81908); assay: biochemical; type: biochemical
T1 construct: butyrylcholinesterase (BChE) (EC 3.1.1.8, from horse serum); purchased Sigma-Aldrich (Steinheim, Germany); host or cells: horse serum (natural source)
T1 sequence (P81908 whole entry): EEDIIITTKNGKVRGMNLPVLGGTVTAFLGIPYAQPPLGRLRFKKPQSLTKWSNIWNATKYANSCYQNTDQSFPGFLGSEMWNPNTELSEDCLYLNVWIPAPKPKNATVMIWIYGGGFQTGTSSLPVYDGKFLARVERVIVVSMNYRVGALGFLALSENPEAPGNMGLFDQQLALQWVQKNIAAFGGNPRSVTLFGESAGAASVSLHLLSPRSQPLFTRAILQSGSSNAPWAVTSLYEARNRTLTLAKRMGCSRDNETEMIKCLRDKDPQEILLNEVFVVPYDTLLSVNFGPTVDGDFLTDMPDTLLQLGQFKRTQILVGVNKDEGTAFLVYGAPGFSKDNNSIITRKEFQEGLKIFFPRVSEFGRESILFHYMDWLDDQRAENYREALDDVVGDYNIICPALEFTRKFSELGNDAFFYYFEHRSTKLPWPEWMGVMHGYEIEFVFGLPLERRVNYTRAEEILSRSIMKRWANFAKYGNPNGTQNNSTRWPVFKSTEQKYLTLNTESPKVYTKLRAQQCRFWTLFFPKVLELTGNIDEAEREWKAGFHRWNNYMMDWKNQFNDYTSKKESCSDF
Experimental: (§1) Acetylcholinesterase (AChE) (EC 3.1.1.7, type VI-S from Electric Eel), butyrylcholinesterase (BChE) (EC 3.1.1.8, from horse serum). AChE and BChE were also isolated from rabbit brain and serum, respectively.
(§2) The inhibitory activities of coumarin derivatives were measured quantitatively by Ellman's method and performed with some modifications as in Ingkaninan et al. method by using 96-microliter well plate. Series of newly synthesized coumarin derivatives were tested as AChE and BChE inhibitors. Initially, each compound was dissolved in DMSO (end concentration of DMSO was less than 1% in assay) and tested at a final concentration of 1 mM or 10 μL of DMSO (as negative control) in wells for initial screening. […] Reaction mixture comprised of 50 μL of 3 mM DTNB (5,5′-dithiobis(2-nitrobenzoic acid)) in assay buffer, 10 μL of test compound, and 10 μL of AChE (0.031 IU/mL) or BChE (0.5 IU/mL). This mixture was preincubated at 25°C for 10 min. After preincubation, enzymatic reaction was started by addition of 10 μL of 10 mM MBTCCl (butyrylthiocholine chloride) or ATCI (acetylthiocholine iodide) according to the respective enzyme and mixture was incubated again for 15 min. […] Enzyme dilution buffer consisted of 50 mM Tris-HCl containing 0.1% (w/v) BSA (pH 8). The effect of DMSO on activity of enzyme was subtracted by a negative control containing DMSO, instead of inhibitor. Each concentration was analyzed in triplicate and Ki values were calculated from IC50 values by using a nonlinear curve fitting program PRISM 5.0 (GraphPad, San Diego, California, USA).

[2] = target: T2, rabbit AChE (rAChE), isolated from rabbit brain (Oryctolagus cuniculus, UniProt Q29499); assay: biochemical
T2 construct: AChE was isolated from rabbit brain; from tissue; host or cells: rabbit brain
T2 sequence (Q29499 2-584): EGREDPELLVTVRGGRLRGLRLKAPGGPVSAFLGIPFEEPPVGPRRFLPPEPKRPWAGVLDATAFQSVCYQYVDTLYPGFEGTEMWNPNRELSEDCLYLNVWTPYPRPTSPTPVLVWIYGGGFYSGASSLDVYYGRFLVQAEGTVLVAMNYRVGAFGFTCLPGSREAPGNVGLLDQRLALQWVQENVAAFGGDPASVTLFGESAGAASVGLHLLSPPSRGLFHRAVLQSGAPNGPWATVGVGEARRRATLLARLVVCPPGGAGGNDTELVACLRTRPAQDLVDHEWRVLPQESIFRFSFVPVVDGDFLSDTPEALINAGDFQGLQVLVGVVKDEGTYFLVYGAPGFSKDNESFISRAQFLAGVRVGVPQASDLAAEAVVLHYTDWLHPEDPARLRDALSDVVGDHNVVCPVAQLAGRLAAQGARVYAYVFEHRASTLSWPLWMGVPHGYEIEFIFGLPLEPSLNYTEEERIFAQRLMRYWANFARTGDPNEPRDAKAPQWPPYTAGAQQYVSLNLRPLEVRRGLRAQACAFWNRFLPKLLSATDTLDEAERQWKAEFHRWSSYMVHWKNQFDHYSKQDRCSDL
Experimental: as §1
(§3) AChE was isolated from rabbit brain. Heads were decapitated and brains were thawed and homogenized for 30 sec in 2.5 volumes of 1 mM EDTA, 0.32 M ice cold sucrose, 10 μM tetracain (pH7.0). The homogenates were centrifuged at 105,000 ×g for 60 min (4°C). The supernatants were removed and pellets were again homogenized in same volume of 0.2% triton phosphate buffer. After centrifugation, the supernatants were again removed and pellets were rehomogenized for 10 sec in 2.5 volumes of 1% triton phosphate buffer. […] BChE was obtained from rabbit blood serum by applying the techniques of centrifugation. The purified enzymes were stored at –80°C.
as §2

[3] = target: T3, BChE from rabbit serum (rBChE) (Oryctolagus cuniculus, UniProt P21927); assay: biochemical
T3 construct: BChE was obtained from rabbit blood serum by applying the techniques of centrifugation; from tissue; host or cells: rabbit blood serum
T3 sequence (P21927 9-581): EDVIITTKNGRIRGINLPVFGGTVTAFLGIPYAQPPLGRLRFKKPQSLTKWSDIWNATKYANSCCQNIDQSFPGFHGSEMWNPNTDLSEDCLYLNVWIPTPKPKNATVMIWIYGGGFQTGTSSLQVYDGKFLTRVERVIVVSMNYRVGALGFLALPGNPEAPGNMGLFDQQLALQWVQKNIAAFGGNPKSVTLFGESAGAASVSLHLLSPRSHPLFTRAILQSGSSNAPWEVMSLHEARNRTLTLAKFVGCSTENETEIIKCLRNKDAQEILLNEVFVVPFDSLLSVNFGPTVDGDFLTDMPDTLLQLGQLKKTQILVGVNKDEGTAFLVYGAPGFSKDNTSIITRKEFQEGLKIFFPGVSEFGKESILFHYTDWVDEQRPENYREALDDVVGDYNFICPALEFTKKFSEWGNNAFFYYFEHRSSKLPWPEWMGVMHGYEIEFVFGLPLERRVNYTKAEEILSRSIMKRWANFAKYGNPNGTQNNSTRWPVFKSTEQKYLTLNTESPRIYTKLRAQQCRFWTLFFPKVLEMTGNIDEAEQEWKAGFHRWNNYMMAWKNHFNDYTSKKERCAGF
Experimental: as §1, §3, §2

[4] = target: T4, AChE from electrophorus electricus (EeAChE) (Electrophorus electricus, UniProt O42275); assay: biochemical
T4 construct: Acetylcholinesterase (AChE) (EC 3.1.1.7, type VI-S from Electric Eel); purchased Sigma-Aldrich (Steinheim, Germany) type VI-S; host or cells: electric eel (natural source)
T4 sequence (O42275 24-633): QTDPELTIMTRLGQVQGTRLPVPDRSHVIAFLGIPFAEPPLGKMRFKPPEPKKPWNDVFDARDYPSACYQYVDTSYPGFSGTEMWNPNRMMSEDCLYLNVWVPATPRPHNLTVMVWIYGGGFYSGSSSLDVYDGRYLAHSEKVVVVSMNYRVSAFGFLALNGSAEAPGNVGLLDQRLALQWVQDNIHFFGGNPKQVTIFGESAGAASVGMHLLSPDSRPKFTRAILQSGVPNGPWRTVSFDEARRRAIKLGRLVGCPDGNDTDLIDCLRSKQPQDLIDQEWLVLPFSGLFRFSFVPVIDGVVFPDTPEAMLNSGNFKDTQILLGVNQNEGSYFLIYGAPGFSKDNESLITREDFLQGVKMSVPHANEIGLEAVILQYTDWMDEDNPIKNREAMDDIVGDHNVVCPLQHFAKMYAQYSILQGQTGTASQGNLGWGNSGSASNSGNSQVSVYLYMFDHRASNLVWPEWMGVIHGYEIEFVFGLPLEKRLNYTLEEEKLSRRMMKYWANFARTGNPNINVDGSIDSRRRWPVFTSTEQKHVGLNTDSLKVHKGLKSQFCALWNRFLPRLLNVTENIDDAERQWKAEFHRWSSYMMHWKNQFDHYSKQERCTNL
Experimental: as §1, §2

AChE = assay: Kinetic characterization of AChE inhibition (Lineweaver-Burk); type: biochemical; details: Lineweaver-Burk plots; inhibitor 0–100 nM; substrate ATCI
Experimental: (§4) […]. […] As Km value was increasing and value of Vmax remained almost same in the presence or absence of inhibitor, indication of competitive type of inhibitory mechanism against AChE and BChE.
(§5) Kinetic characterization of AChE and BChE was performed by using Ellman's method. […]. Enzyme kinetic characterization studies were performed under same incubation conditions as described above by using ATCI and BTCCl as substrates and DTNB was used as chromophoric reagent. A parallel control with no inhibitor in the mixture was added for comparison. Each concentration was analyzed in triplicate; and Lineweaver-Burk (1/V versus 1/[S]) plot was constructed using Prism software.

BChE = assay: Kinetic characterization of BChE inhibition (Lineweaver-Burk); type: biochemical; details: Lineweaver-Burk plots; inhibitor 0–5 nM; substrate BTCCl
Experimental: as §4, §5

[5] = horse serum BChE, mean ± SEM of three experiments, Ki calculated from IC50, substrate BTCCl, read-out: hBChE Ki ± SEM
[6] = mean ± SEM of three experiments, Ki calculated from IC50, substrate ATCI, read-out: rAChE Ki ± SEM
[7] = rabbit serum BChE, mean ± SEM of three experiments, Ki calculated from IC50, substrate BTCCl, read-out: rBChE Ki ± SEM
[8] = mean ± SEM of three experiments, Ki calculated from IC50, substrate ATCI, read-out: EeAChE Ki ± SEM

SMILES: O=c1oc2ccccc2cc1-c1n[nH]c(=S)n1-c1ccccc1Cl [Compound 3a, 3-(4-(2-Chlorophenyl)-5-thioxo-4,5-dihydro-1H-1,2,4-triazol-3-yl)-2H-chromen-2-one]
- Ki [1, 5]: 190 ± 10 nM
- Ki [2, 6]: 470 ± 70 nM
- Ki [3, 7]: 21400 ± 1600 nM
- Ki [4, 8]: 2420 ± 430 nM

SMILES: O=c1oc2ccccc2cc1-c1n[nH]c(=S)n1-c1cccc(Cl)c1 [Compound 3b, 3-(4-(3-Chlorophenyl)-5-thioxo-4,5-dihydro-1H-1,2,4-triazol-3-yl)-2H-chromen-2-one]
- Ki [1, 5]: 36 ± 3 nM
- fold more active on hBChE than neostigmine ([1]; ratio of Ki values versus neostigmine): 2 fold
- Ki [2, 6]: 600 ± 30 nM
- Ki [3, 7]: 65700 ± 2000 nM
- Ki [4, 8]: 320 ± 70 nM

SMILES: O=c1oc2ccccc2cc1-c1n[nH]c(=S)n1-c1ccc(Cl)cc1 [Compound 3c, 3-(4-(4-Chlorophenyl)-5-thioxo-4,5-dihydro-1H-1,2,4-triazol-3-yl)-2H-chromen-2-one]
- Ki [1, 5]: 1340 ± 20 nM
- Ki [2, 6]: 13 ± 2 nM
- Ki [3, 7]: 520 ± 30 nM
- Ki [4, 8]: 450 ± 90 nM

SMILES: Cc1cccc(-n2c(-c3cc4ccccc4oc3=O)n[nH]c2=S)c1 [Compound 3d, 3-(5-Thioxo-4-m-tolyl-4,5-dihydro-1H-1,2,4-triazol-3-yl)-2H-chromen-2-one]
- Ki [1, 5]: 180 ± 20 nM
- Ki [2, 6]: 82 ± 2 nM
- Ki [3, 7]: 1110 ± 50 nM
- Ki [4, 8]: 5770 ± 310 nM

SMILES: Cc1ccc(-n2c(-c3cc4ccccc4oc3=O)n[nH]c2=S)cc1 [Compound 3e, 3-(5-Thioxo-4-p-tolyl-4,5-dihydro-1H-1,2,4-triazol-3-yl)-2H-chromen-2-one]
- Ki [1, 5]: 130 ± 10 nM
- Ki [2, 6]: 39 ± 2 nM
- Ki [3, 7]: 140 ± 50 nM
- Ki [4, 8]: 18400 ± 3400 nM

SMILES: COc1ccccc1-n1c(-c2cc3ccccc3oc2=O)n[nH]c1=S [Compound 3f, 3-(4-(2-Methoxyphenyl)-5-thioxo-4,5-dihydro-1H-1,2,4-triazol-3-yl)-2H-chromen-2-one]
- Ki [1, 5]: 280 ± 10 nM
- Ki [2, 6]: 61 ± 5 nM
- Ki [3, 7]: 690 ± 20 nM
- Ki [4, 8]: 4060 ± 340 nM

SMILES: COc1cccc(-n2c(-c3cc4ccccc4oc3=O)n[nH]c2=S)c1 [Compound 3g, 3-(4-(3-Methoxyphenyl)-5-thioxo-4,5-dihydro-1H-1,2,4-triazol-3-yl)-2H-chromen-2-one]
- Ki [1, 5]: 7550 ± 30 nM
- Ki [2, 6]: 46 ± 2 nM
- Ki [3, 7]: 22100 ± 200 nM
- Ki [4, 8]: 980 ± 340 nM

SMILES: O=c1oc2ccccc2cc1-c1nnc(Nc2ccccc2Cl)s1 [Compound 4a, 3-(5-(2-Chlorophenylamino)-1,3,4-thiadiazol-2-yl)-2H-chromen-2-one]
- Ki [1, 5]: 100 ± 10 nM
- Ki [2, 6]: 31 ± 8 nM
- Ki [3, 7]: 1390 ± 20 nM
- Ki [4, 8]: 5750 ± 780 nM

SMILES: O=c1oc2ccccc2cc1-c1nnc(Nc2cccc(Cl)c2)s1 [Compound 4b, 3-(5-(3-Chlorophenylamino)-1,3,4-thiadiazol-2-yl)-2H-chromen-2-one]
- Ki [1, 5]: 540 ± 90 nM
- Ki [2, 6]: 28 ± 2 nM
- Ki [3, 7]: 2260 ± 20 nM
- Type of inhibition of AChE (AChE): competitive inhibitor
- Type of inhibition of BChE (BChE): competitive inhibitor
- Ki [4, 8]: 280 ± 70 nM

SMILES: O=c1oc2ccccc2cc1-c1nnc(Nc2ccc(Cl)cc2)s1 [Compound 4c, 3-(5-(4-Chlorophenylamino)-1,3,4-thiadiazol-2-yl)-2H-chromen-2-one]
- Ki [1, 5]: 420 ± 10 nM
- Ki [2, 6]: 240 ± 21 nM
- Ki [3, 7]: 350 ± 10 nM
- Ki [4, 8]: 48600 ± 4400 nM

SMILES: Cc1cccc(Nc2nnc(-c3cc4ccccc4oc3=O)s2)c1 [Compound 4d, 3-(5-(m-Toluidino)-1,3,4-thiadiazol-2-yl)-2H-chromen-2-one]
- Ki [1, 5]: 660 ± 10 nM
- Ki [2, 6]: 17 ± 2 nM
- Ki [3, 7]: 510 ± 10 nM
- Ki [4, 8]: 28000 ± 1630 nM

SMILES: Cc1ccc(Nc2nnc(-c3cc4ccccc4oc3=O)s2)cc1 [Compound 4e, 3-(5-(p-Toluidino)-1,3,4-thiadiazol-2-yl)-2H-chromen-2-one]
- Ki [1, 5]: 280 ± 20 nM
- Ki [2, 6]: 561 ± 22 nM
- Ki [3, 7]: 460 ± 10 nM
- Ki [4, 8]: 6190 ± 290 nM

SMILES: COc1ccccc1Nc1nnc(-c2cc3ccccc3oc2=O)s1 [Compound 4f, 3-(5-(2-Methoxyphenylamino)-1,3,4-thiadiazol-2-yl)-2H-chromen-2-one]
- Ki [1, 5]: 230 ± 10 nM
- Ki [2, 6]: 81 ± 1 nM
- Ki [3, 7]: 1360 ± 30 nM
- Ki [4, 8]: 7160 ± 10 nM

SMILES: COc1cccc(Nc2nnc(-c3cc4ccccc4oc3=O)s2)c1 [Compound 4g, 3-(5-(3-Methoxyphenylamino)-1,3,4-thiadiazol-2-yl)-2H-chromen-2-one]
- Ki [1, 5]: 340 ± 10 nM
- Ki [2, 6]: 21 ± 1 nM
- Ki [3, 7]: 1520 ± 30 nM
- Ki [4, 8]: 8260 ± 10 nM

SMILES: CN(C)C(=O)Oc1cccc([N+](C)(C)C)c1 [Neostigmine, neostigmine methylsulfate, reference compound]
- Ki [1]: 60 ± 5 nM
- Ki [2]: 48 ± 3 nM
- Ki [3]: 47 ± 6 nM
- Ki [4]: 56 ± 6 nM
